Test results from patent US12312379B2, “Methods for producing cyclic compounds comprising N-substituted amino acid residues” (Chugai Seiyaku Kabushiki Kaisha, priority 2021, dated 2025).
Converted amounts (≈) assume the structure as drawn. Where two headings read alike, the source gives them in different places.

Key:
[1] = water/octanol; literature or database values; cited from earlier work
[2] = cited from earlier work
[3] = Merck Index 14th Edition; Org. Process Res. Dev. 2007 for 2-MeTHF; cited from earlier work
[4] = Water content by Karl Fischer titration (CA-200); format: physicochemical; conditions: wet crystals
Text: The conditions for analyzing the water content by Karl Fischer titration method are shown below. • Instrument: CA-200 (manufactured by Nittoseiko Analytech Co., Ltd.) • Anolyte: Aquamicron AKX • Catholyte: Aquamicron CXU

[5] = Amount of acetone by GC; format: physicochemical; conditions: wet crystals
Method: The conditions for analyzing the amount of acetone by GC are shown below. • Instrument: GC-2010 (manufactured by SHIMADZU CORPORATION) • Column: DB-624 (Agilent), 0.530 mm ID×30 m, 3.00 μm • Column temperature: 50° C. (5 min)→10° C./min→90° C. (0 min)→50° C./min→240° C. (5 min) • Injector temperature: 230° C. • Detector temperature: 250° C. • Split ratio: 20/1 • Flow rate: 30 cm/sec

[6] = Powder X-ray diffraction at different humidities; format: physicochemical; conditions: 35.0 °C, relative humidity of 75% to 0%, versus Form C obtained in Example 25
Method: Powder X-ray diffraction of the hydrate crystals (Form C) of Compound 1 prepared in Example 26 was measured at different humidities by the following method. Measurement apparatus: SmartLab System, D/Tex Ultra detector, humidity generator HUM-SL (manufactured by Rigaku Corporation) • Anticathode: Cu • Tube voltage: 45 kV • Tube current: 200 mA • Scanning range: 5-30° • Scanning speed: 0.7°/min • Sampling width: 0.02° • Varying humidity conditions: […]

[7] = Dynamic water vapor adsorption (DVS Intrinsic); format: physicochemical; conditions: 25° C., relative humidity range of 0% to 95%, relative to the weight when the relative humidity is 0%
Method: The dynamic water vapor adsorption properties of the hydrate crystals (Form C) of Compound 1 prepared in Example 26 were measured by the following method. The results are shown in FIG. 10. • Measurement apparatus: DVS Intrinsic (manufactured by Surface Measurement Systems) • Temperature: 25° C. • Relative humidity (%) measurement points: • Cycle 1: 0, 10, 20, 30, 40, 50, 60, 70, 80, 90, 95, 90, 80, 70, 60, 50, 40, 30, 20, 10, 0(%); • Cycle 2: 10, 20, 30, 40, 50, 60, 70, 80, 90, 95, 90, 80, 70, 60, 50, 40, 30, 20, 10, 0(%) • Threshold: 0.001 dm/dt (%/min) • Minimum adsorption time: 10 min • Maximum adsorption time: 1440 min

[8] = Water content by Karl Fischer titration (CA-310); format: physicochemical; conditions: after acclimatization of the sample to laboratory environment
Method: The water content of the hydrate crystals (Form C) of Compound 1 prepared in Example 26 was measured by Karl Fischer titration method. After acclimatization of the sample to laboratory environment, the measurement was carried out using CA-310 (manufactured by Nittoseiko Analytech).

[9] = Org. Process Res. Dev. 2007 / J. Mol. Catal. A Chem. 2010

Compound | log Kow values or predicted log Kow values [1] | miscibility / solubility in water (in words) [3] | amount that dissolves in 1 L of water ([2]; Merck Index 14th Edition) [g] | further results
CC1CCCO1 (stereo not drawn) [Compound 2-MeTHF, 2-methyltetrahydrofuran] | 1.35 | not miscible with water | – | amount that dissolves in 1 L of water [2, 9]: 140 g; water solubility ([2]; room temperature (e.g. 25° C.)): 150 mg/mL (≈ 1740 mM)
C[S+](C)[O-] [DMSO, dimethyl sulfoxide] | −0.31 | soluble in water | – | water solubility ([2]; ChemIDplus Advanced (NIH)): 1000 mg/mL (≈ 12800 mM)
CC#N [acetonitrile] | −0.34 | miscible with water | – | –
COc1ccccc1 [anisole] | 2.11 | – | – | –
COC(=O)OC [dimethyl carbonate] | 0.23 | – | 139 | amount that dissolves in 1 L of water [2, 9]: 139 g
CCOC(C)=O [ethyl acetate] | 0.73 | – | 100 | –
CCCCCCC [heptane] | 4.66 | insoluble in water | – | –
CC(=O)OC(C)C [isopropyl acetate] | 1.02 | – | 43 | –
(5S,8S,11S,15S,18S,23aS,29S,35S,37aS)-8-((S)-sec-butyl)-18-cyclopentyl-29-(3,5-difluoro-4-(trifluoromethyl)phenethyl)-36-ethyl-11-isobutyl-N,N,5,6,12,16,19,33-octamethyl-35-(4-methylbenzyl)-4,7,10,13,17,20,23,28,31,34,37-undecaoxotetratriacontahydro-2H,4H-spiro[azeto[2,1-u]pyrrolo[2,1-i][1,4,7,10,13,16,19,22,25,28,31]undecaazacyclotetratriacontin-21,1′-cyclopentane]-15-carboxamide | – | – | – | water content [4]: 17.5%; acetone content [5]: 3.7%
(5S,8S,11S,15S,18S,23aS,29S,35S,37aS)-8-((S)-sec-butyl)-18-cyclopentyl-29-(3,5-difluoro-4-(trifluoromethyl)phenethyl)-36-ethyl-11-isobutyl-N,N,5,6,12,16,19,33-octamethyl-35-(4-methylbenzyl)-4,7,10,13,17,20,23,28,31,34,37-undecaoxotetratriacontahydro-2H,4H-spiro[azeto[2,1-u]pyrrolo[2,1-i][1,4,7,10,13,16,19,22,25,28,31]undecaazacyclotetratriacontin-21,1′-cyclopentane]-15-carboxamide [hydrate crystals (Form C) of Compound 1] | – | – | – | shift in 2θ values [6]: ≤ 0.2 °; weight change as the hydration number changes [7]: ≤ 3.3 % weight; water content [8]: 6.50 wt %
